# Source: ChEMBL document CHEMBL5390201, “The Natural Alkaloid (-)-N-Hydroxyapiosporamide Suppresses Colorectal Tumor Progression as an NF-κB Pathway Inhibitor by Targeting the TAK1-TRAF6 Complex” (J Nat Prod, 2023)
# The source made the active and inactive calls. No cut-off for these calls is given here.
# Columns and labels:
# HCT-116 [1] = test: Induction of apoptosis in human HCT-116 cells assessed as early apoptotic cells at 0.25 uM incubated for 24 hrs by Annexin V-FITC/PI staining based flow cytometric analysis (reference value: 7.22 %); assay type: functional
# HCT-15 = test: Cytotoxicity against human HCT-15 cells assessed as decrease in cell viability incubated for 48 hrs by SRB assay; assay type: functional, cell-based; conditions: HCT-15, 48 h
# [2] = Toxicity in athymic nude BALB/c mouse xenografted with human HT-29 cells assessed as reduction in body weight at 5 to 15 mg/kg, ip administered every other day and measured every other day for 16 days; assay type: organism-based; conditions: in vivo, 384 h, dose 5-15 mg/kg, time 16 day
# Cell membrane [3] = test: Disruption of mitochondrial membrane potential in human HCT-116 cells at upto 10 uM measured after 24 hrs by JC-1 staining based fluorescence microscopy; assay type: subcellular
# HT-29 [4] = test: Induction of apoptosis in human HT-29 cells assessed as inhibition of caspase 9 protein expression measured for 24 hrs by Western blot analysis; assay type: functional, cell-based; conditions: dose 0-10 µM
# HCT-116 [5] = test: Induction of cell cycle arrest in human HCT-116 cells assessed as decrease in CDK2 protein expression upto 10 uM incubated for 24 hrs by Western blot analysis; assay type: functional, cell-based
# HT-29 [6] = test: Induction of autophagic flux in human HT-29 cells assessed as increase in LC3I to LC3II conversion preincubated with 3-methyladenine for 1 hr followed by compound addition and measured after 24 hrs by Western blot analysis; assay type: functional, cell-based
# HT-29 [7] = test: Antitumor activity against human HT-29 cells xenografted in athymic nude BALB/c mouse assessed as induction of autophagy by measuring reduction in p62 expression in tumor at 15 mg/kg, ip administered every other day and measured after 14 days by immunohistochemistry analysis; assay type: functional, organism-based; conditions: time 14.0 day
# HT-29 [8] = test: Induction of apoptosis in human HT-29 cells assessed as late apoptotic cells at 5 uM incubated for 24 hrs by Annexin V-FITC/PI staining based flow cytometric analysis (reference value: 6.91 %); assay type: functional
# HCT-116 [9] = test: Induction of cell cycle arrest in human HCT-116 cells assessed as accumulation of cells at G2/M phase at 1 uM by RNase/PI staining based flow cytometry analysis (reference value: 23.15 %); assay type: functional
# HT-29 [10] = test: Induction of autophagy in human HT-29 cells assessed as increase in LC3I to LC3II conversion at 1 to 10 uM incubated for 24 hrs by Western blotting analysis; assay type: functional, cell-based; conditions: dose 1-10 µM
# Mus musculus [11] = test: (§1) Anti-inflammatory activity in AOM/DSS-induced BALB/c mouse model inflammatory bowel disease assessed as reduction in colon thickness at 5 to 10 mg/kg, ip pretreated with AOM for 7 days further replaced with DSS for 7 days and repeated for 2 times followed by every 2 days compound treatment for […] starting from day 50 and measured once a week; assay type: functional, organism-based; conditions: dose 5-10 mg/kg, time 21.0 day
# Mus musculus [12] = test: In vivo inhibition of NFkappaB activation in athymic BALB/c mouse xenografted with human HT-29 cells assessed as reduction in IL-8 gene expression in tumor at 5 to 15 mg/kg, ip administered every other day and measured after 14 days by qRT-PCR analysis; assay type: functional, organism-based; conditions: dose 5-15 mg/kg, time 14.0 day
# [13] = biological target: Nuclear factor NF-kappa-B complex (Homo sapiens) (UniProt Q00653+P19838+Q04206); test: Inhibition of TNF-alpha induced NFkappaB activation in human HCT-116 cells assessed as inhibition of IkappaBalpha phosphorylation at 1 to 10 uM pretreated for 24 hrs followed by TNFalpha stimulation for 10 mins by Western blot analysis; assay type: cell-based; conditions: dose 1-10 µM, time 1450.0 min
# Nuclear factor NF-kappa-B complex (Homo sapiens), sequence (P19838 whole entry, looked up): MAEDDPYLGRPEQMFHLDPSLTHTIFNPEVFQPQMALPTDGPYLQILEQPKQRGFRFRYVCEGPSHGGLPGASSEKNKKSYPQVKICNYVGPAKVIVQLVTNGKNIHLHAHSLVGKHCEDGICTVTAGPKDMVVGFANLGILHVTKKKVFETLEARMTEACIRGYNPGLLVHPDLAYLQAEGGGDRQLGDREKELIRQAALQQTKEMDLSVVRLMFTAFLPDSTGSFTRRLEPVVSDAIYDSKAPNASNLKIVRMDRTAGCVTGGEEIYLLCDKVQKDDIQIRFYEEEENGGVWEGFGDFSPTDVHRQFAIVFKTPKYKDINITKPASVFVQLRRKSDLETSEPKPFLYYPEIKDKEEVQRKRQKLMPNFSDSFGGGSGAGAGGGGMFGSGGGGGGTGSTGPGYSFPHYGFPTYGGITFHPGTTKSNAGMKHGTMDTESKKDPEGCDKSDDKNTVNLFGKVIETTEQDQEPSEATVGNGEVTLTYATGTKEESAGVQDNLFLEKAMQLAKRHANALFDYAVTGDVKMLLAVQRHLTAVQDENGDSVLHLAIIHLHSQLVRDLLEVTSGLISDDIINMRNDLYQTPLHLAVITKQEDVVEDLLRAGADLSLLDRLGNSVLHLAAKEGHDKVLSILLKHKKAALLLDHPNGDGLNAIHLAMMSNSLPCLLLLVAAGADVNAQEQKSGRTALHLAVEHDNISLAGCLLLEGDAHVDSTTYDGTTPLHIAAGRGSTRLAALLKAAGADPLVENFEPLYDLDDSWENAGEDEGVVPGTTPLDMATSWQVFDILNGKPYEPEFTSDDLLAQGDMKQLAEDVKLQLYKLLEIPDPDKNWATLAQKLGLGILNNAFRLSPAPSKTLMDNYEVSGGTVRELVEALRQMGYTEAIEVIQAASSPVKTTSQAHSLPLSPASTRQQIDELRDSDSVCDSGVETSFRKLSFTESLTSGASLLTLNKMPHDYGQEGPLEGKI
# Nuclear factor NF-kappa-B complex (Homo sapiens), sequence (Q00653 whole entry, looked up): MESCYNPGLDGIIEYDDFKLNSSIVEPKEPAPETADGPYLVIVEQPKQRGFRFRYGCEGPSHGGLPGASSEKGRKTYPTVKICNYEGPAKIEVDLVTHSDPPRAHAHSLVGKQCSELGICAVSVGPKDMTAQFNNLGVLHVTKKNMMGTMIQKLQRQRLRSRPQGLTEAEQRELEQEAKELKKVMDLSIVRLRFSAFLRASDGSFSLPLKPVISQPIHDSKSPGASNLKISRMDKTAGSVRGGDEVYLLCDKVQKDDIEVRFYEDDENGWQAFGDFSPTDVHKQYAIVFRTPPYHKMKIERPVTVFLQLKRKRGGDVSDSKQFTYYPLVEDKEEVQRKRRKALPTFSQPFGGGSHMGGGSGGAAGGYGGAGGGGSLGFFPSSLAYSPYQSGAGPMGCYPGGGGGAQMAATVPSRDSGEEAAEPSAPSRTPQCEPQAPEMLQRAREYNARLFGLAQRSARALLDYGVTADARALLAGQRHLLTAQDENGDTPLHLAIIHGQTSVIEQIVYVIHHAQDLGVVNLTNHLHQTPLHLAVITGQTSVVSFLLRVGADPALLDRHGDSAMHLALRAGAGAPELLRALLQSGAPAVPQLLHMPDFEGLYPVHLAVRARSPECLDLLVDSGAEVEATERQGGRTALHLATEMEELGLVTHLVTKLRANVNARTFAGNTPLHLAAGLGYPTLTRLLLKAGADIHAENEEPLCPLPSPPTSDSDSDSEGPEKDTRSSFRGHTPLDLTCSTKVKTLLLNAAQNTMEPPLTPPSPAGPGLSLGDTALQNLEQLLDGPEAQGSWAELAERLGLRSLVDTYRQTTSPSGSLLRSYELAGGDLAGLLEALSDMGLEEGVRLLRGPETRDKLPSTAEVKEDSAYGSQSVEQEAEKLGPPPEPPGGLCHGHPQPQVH
# Nuclear factor NF-kappa-B complex (Homo sapiens), sequence (Q04206 whole entry, looked up): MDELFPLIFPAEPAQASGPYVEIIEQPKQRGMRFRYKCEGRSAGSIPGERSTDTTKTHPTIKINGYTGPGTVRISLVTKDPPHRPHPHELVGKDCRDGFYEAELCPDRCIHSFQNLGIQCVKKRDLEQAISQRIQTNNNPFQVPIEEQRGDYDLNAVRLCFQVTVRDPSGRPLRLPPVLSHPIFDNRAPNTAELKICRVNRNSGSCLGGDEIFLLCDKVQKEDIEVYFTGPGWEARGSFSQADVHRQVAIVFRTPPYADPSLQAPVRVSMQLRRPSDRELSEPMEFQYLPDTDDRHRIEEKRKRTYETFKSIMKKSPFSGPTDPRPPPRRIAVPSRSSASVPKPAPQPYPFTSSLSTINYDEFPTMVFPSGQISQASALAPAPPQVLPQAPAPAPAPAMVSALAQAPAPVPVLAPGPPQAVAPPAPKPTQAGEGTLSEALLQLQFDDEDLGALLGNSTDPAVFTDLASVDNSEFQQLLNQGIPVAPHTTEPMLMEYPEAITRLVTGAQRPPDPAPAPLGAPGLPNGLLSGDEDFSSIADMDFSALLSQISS
# Cell membrane [14] = test: Disruption of mitochondrial membrane potential in human HT-29 cells at 0.25 to 10 uM measured after 24 hrs by JC-1 staining based flow cytometry analysis; assay type: subcellular; conditions: dose 0.25-10 µM
# HCT-116 [15] = test: Induction of apoptosis in human HCT-116 cells assessed as viable cells at 5 uM incubated for 24 hrs by Annexin V-FITC/PI staining based flow cytometric analysis (reference value: 88.8%); assay type: functional; conditions: read-out: Activity
# HEK-293T = test: Inhibition of Flag-tagged TAK1/HA-tagged TRAF6 (unknown origin) protein-protein interaction transfected in HEK293T cells at 2 uM incubated for 6 hrs by co-immunoprecipitation method; assay type: cell-based; conditions: Homo sapiens
# Cell membrane [16] = test: Disruption of mitochondrial membrane potential in human HCT-116 cells at 0.25 to 10 uM measured after 24 hrs by JC-1 staining based flow cytometry analysis; assay type: subcellular; conditions: dose 0.25-10 µM
# Mus musculus [17] = test: as §1, with “DAI score” for “colon thickness”; assay type: functional, organism-based; conditions: dose 5-10 mg/kg, time 21.0 day
# HT-29 [18] = test: Induction of apoptosis in human HT-29 cells assessed as late apoptotic cells at 10 uM incubated for 24 hrs by Annexin V-FITC/PI staining based flow cytometric analysis (reference value: 1.56 %); assay type: functional
# HCT-116 [19] = test: Induction of autophagy in human HCT-116 cells assessed as increase in LC3 protein expression at 1 to 10 uM incubated for 24 hrs by Western blot analysis; assay type: functional, cell-based; conditions: dose 1-10 µM
# HT-29 [20] = test: Induction of apoptosis in human HT-29 cells assessed as necrotic cells at 0.5 uM incubated for 24 hrs by Annexin V-FITC/PI staining based flow cytometric analysis (reference value: 0.14 %); assay type: functional
# HCT-116 [21] = test: Induction of apoptosis in human HCT-116 cells assessed as necrotic cells at 0.5 uM incubated for 24 hrs by Annexin V-FITC/PI staining based flow cytometric analysis (reference value: 1.1 %); assay type: functional
# Mus musculus [22] = test: as §1, with “hyperplasia” for “colon thickness”, “at” for “at 5 to”, “50 by H” for “50”, “E staining based analysis” for “measured once a week”; assay type: functional, organism-based; conditions: time 21.0 day
# HT-29 [23] = test: Induction of cell cycle arrest in human HT-29 cells assessed as accumulation of cells at G2/M phase at 1 uM by RNase/PI staining based flow cytometry analysis (reference value: 9.93 %); assay type: functional
# HT-29 [24] = test: Induction of apoptosis in human HT-29 cells assessed as viable cells at 0.5 uM incubated for 24 hrs by Annexin V-FITC/PI staining based flow cytometric analysis (reference value: 93 %); assay type: functional; conditions: read-out: Activity
# HT-29 [25] = test: Induction of cell cycle arrest in human HT-29 cells assessed as decrease in P-cdc2 protein expression upto 10 uM incubated for 24 hrs by Western blot analysis; assay type: functional, cell-based
# HCT-116 [26] = test: Induction of apoptosis in human HCT-116 cells assessed as viable cells at 10 uM incubated for 24 hrs by Annexin V-FITC/PI staining based flow cytometric analysis (reference value: 88.8%); assay type: functional; conditions: read-out: Activity
# HCT-116 [27] = test: Induction of cell death in human HCT-116 cells at 0.5 to 10 uM pretreated with Z-VAD-FMK for 1 hr followed by compound addition and measured after 24 hrs by SRB assay; assay type: functional, cell-based; conditions: dose 0.5-10 µM
# HT-29 [28] = test: Induction of autophagy in human HT-29 cells assessed as increase in autophagic vesicles at 1 to 10 uM incubated for 24 hrs MDC staining-based fluorescence microscopy; assay type: functional, cell-based; conditions: dose 1-10 µM
# HT-29 [29] = test: Induction of apoptosis in human HT-29 cells assessed as late apoptotic cells at 5 uM incubated for 24 hrs by Annexin V-FITC/PI staining based flow cytometric analysis (reference value: 1.56 %); assay type: functional
smiles,measurement,setting,value
C[C@@H]1CC[C@H]2[C@H](C(=O)c3c(O)c([C@@]4(O)CC[C@@H](O)[C@H]5O[C@H]54)cn(O)c3=O)[C@H](C)C=C[C@@H]2C1,Activity,HCT-116 [1],8.93%
same,IC50,HCT-15,570 nM
same,Activity,[2],Non-Toxic
same,Activity,Cell membrane [3],Active
same,Activity,HT-29 [4],Dose-Dependent Effect
same,Activity,HCT-116 [5],Active
same,Activity,HT-29 [6],Active
same,Activity,HT-29 [7],Active
same,Activity,HT-29 [8],21.9%
same,Activity,HCT-116 [9],20.12%
same,Activity,HT-29 [10],Active
same,Activity,Mus musculus [11],Active
same,inhibition,Mus musculus [12],Active
same,inhibition,[13],Active
same,Activity,Cell membrane [14],Active
same,viability at 5 µM,HCT-116 [15],16.5%
same,inhibition,HEK-293T,Active
same,Activity,Cell membrane [16],Active
same,Activity,Mus musculus [17],Active
same,Activity,HT-29 [18],16.8%
same,Activity,HCT-116 [19],Active
same,Activity,HT-29 [20],0.2%
same,Activity,HCT-116 [21],2.54%
same,Activity,Mus musculus [22],Active
same,Activity,HT-29 [23],7.08%
same,viability at 0.5 µM,HT-29 [24],55.5%
same,Activity,HT-29 [25],Active
same,viability at 10 µM,HCT-116 [26],11.1%
same,inhibition,HCT-116 [27],inactive
same,Activity,HT-29 [28],Active
same,Activity,HT-29 [29],4.04%
